# Reference: patent publication US8492371B2, “Compounds as cannabinoid receptor ligands” (priority 2009, dated 2013)
# Tests used:
# [1] = cited from earlier work
# [2] = rat formalin model of persistent pain; cited from earlier work
# [3] = neuropathic, incisional, chronic and acute inflammatory pain; cited from earlier work
# [4] = low doses, apolipoprotein E knockout mice; inhibited by SR144528; cited from earlier work
# microglial = details: in vitro; blocked by SR144528; cited from earlier work
# [5] = acute thermal, persistent, inflammatory and neuropathic pain models; cited from earlier work
# human CB2 receptors = target: T1, human CB2 receptors (Homo sapiens, UniProt P34972); test: Human CB2 radioligand binding assay ([3H]CP-55,940 competition)
# T1 construct: expressed in transfected cells; host or cells: HEK293
# T1 sequence (P34972 whole entry): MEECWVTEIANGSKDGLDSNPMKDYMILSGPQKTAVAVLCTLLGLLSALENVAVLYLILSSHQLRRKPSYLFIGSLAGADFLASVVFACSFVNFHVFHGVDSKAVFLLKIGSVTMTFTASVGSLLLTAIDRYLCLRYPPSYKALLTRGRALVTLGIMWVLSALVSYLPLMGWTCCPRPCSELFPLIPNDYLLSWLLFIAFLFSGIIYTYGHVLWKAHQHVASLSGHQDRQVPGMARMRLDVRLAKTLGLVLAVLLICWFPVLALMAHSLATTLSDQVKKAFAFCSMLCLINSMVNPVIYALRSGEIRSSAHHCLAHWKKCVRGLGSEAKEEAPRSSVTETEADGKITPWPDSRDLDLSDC
# In short: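 Membranes from HEK293 cells stably expressing human CB2 (5 μg/well) incubated 90 min at 30 °C with 0.5 nM [3H]CP-55,940 and five concentrations of displacer (0.01 nM–10 μM) in pH 7.4 Tris/EDTA/MgCl2 buffer with fatty acid free BSA. Bound radioactivity counted after filtration; nonspecific binding defined with 10 μM unlabeled CP-55,940.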
# rat CB2 receptors = target: T2, rat CB2 receptors (Rattus norvegicus, UniProt Q9QZN9); test: Rat CB2 radioligand binding assay ([3H]CP-55,940 competition)
# T2 construct: expressed in transfected cells; host or cells: HEK293
# T2 sequence (Q9QZN9 1-360): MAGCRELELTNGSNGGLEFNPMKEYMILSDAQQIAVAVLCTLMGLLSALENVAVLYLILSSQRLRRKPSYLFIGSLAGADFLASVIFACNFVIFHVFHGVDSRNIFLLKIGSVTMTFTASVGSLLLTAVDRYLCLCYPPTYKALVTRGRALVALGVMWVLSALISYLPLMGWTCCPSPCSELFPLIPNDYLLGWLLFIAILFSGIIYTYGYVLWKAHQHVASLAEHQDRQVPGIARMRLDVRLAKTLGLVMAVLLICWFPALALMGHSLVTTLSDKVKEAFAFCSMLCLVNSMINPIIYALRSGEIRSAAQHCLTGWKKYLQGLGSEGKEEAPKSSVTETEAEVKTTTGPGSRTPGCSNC
# In short: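 Membranes from HEK293 cells stably expressing rat CB2 (20 μg/well) incubated 45 min at 30 °C with 0.5 nM [3H]CP-55,940 and five competitor concentrations in Tris/EDTA/MgCl2 buffer with 0.5 mg/mL BSA, pH 7.4. Filtration and scintillation counting; nonspecific binding with 10 μM unlabeled CP-55,940.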
compound,measurement,setting,value
SR144528,ovariectomy-induced bone loss,"[1]; mice, model for post-menopausal osteoporosis",reverse ovariectomy-induced bone loss
same,osteoclast activity,"[1]; mouse, in vivo",inhibit osteoclast activity
CCCCCCC(C)(C)c1cc(OC)c([C@@H]2C=C(CO)[C@@H]3C[C@H]2C3(C)C)c(OC)c1 [HU-308],antinociceptive response,[2],elicits an antinociceptive response
COc1ccc2c(c1)c(CCN1CCOCC1)c(C)n2C(=O)c1cccc(Cl)c1Cl [GW405833],efficacy in pain models,[3],is efficacious
(−)-Δ^9-Tetrahydrocannabinol [THC],progression of atherosclerotic lesions,[4],slowed the progression of atherosclerotic lesions
CCCC(C)(C)c1ccc2c(c1)OC(C)(C)[C@@H]1CC=C(C)C[C@@H]21 [JWH-133],effect on β-amyloid-induced microglial activation and neurotoxicity,microglial,abrogated β-amyloid-induced microglial activation and neurotoxicity
CN1CCCCC1Cn1cc(C(=O)c2cc([N+](=O)[O-])ccc2I)c2ccccc21 (stereo not shown) [AM-1241],analgesic efficacy,[5],exhibits robust analgesic efficacy
"COc1ccc(Cl)cc1C(=O)/N=c1\oc(C(C)(C)C)cn1C[C@H]1CCCO1 [Example 13, N-[(2Z)-5-tert-butyl-3-[(2R)-tetrahydrofuran-2-ylmethyl]-1,3-oxazol-2(3H)-ylidene]-5-chloro-2-methoxybenzamide]",Ki,human CB2 receptors,4.8 nM
same,Ki,rat CB2 receptors,1.9 nM
"COc1ccc(C(F)(F)F)cc1C(=O)/N=c1\cc(C(C)(C)C)n(C)n1CC1CC[C@@H](C)O1 (mixture of isomers) [Example 64, N-((3E)-5-tert-butyl-1-methyl-2-{[(5R)-5-methyltetrahydrofuran-2-yl]methyl}-1,2-dihydro-3H-pyrazol-3-ylidene)-2-methoxy-5-(trifluoromethyl)benzamide]",Ki,human CB2 receptors,30 nM
same,Ki,rat CB2 receptors,6.2 nM
"Cn1c(C(C)(C)C)c/c(=N\C(=O)c2cccc(C(F)(F)F)c2F)n1C[C@H]1CCCO1 [Example 46, N-{(3E)-5-tert-butyl-1-methyl-2-[(2R)-tetrahydrofuran-2-ylmethyl]-1,2-dihydro-3H-pyrazol-3-ylidene}-2-fluoro-3-(trifluoromethyl)benzamide]",Ki,human CB2 receptors,0.7 nM
same,Ki,rat CB2 receptors,1.3 nM
